Laboratory results: paper PMC2568955, “Structures of SRP54 and SRP19, the Two Proteins that Organize the Ribonucleic Core of the Signal Recognition Particle from Pyrococcus furiosus” (PLoS ONE, 2008)

Target: T1, Pfu-SRP54 (Pyrococcus furiosus, UniProt Q8U070)
T1 construct: full-length, pET28b, thrombin-cleavable His6 tag removed, E. coli BL21(DE3)-Rosetta2; free of SRP RNA and SRP19; two monomers per asymmetric unit (non-crystallographic dimer); finger loop L346-I365 disordered
T1 sequence (Q8U070 1-443): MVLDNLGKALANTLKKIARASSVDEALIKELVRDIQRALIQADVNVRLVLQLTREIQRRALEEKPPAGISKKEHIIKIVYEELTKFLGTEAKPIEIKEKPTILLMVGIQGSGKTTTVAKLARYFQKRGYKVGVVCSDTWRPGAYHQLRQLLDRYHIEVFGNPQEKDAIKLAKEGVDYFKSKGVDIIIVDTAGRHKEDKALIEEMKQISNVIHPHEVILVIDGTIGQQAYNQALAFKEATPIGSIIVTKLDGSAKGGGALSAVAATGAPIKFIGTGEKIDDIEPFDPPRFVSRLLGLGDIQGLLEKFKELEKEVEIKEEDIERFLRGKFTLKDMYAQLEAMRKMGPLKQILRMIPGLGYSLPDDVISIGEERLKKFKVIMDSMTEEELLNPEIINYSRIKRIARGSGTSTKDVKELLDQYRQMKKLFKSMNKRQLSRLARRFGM
Experiment: X-ray crystal structure, […] Å
Format: binding
Conditions: co-crystallised with 10 mM GDP; 1.0-1.3 M lithium sulfate, 100 mM sodium acetate pH 5.0; room temperature; GTPase active site in G domain, no clear Mg ion

## Nc1nc2c(ncn2[C@@H]2O[C@H](COP(=O)(O)OP(=O)(O)O)[C@@H](O)[C@H]2O)c(=O)[nH]1 [GDP]
  X-ray crystal structure, 2.5 Å: Pfu-SRP54 was co-crystallized in presence of GDP, and the nucleotide is clearly identified
